Entries after “also recorded” stand apart in the source; their conditions may differ.
How the values were obtained:
[1] = target: T1, p38 MAPKα isoform (MAPK14) (Homo sapiens, UniProt Q16539); test: Enzyme inhibition assay (FRET, Z-LYTE), p38 MAPKα via MAPKAP-K2 activation; format: biochemical; settings: read-out: Enzyme Inhibition IC50 p38α
T1 construct: purchased Invitrogen
Outline: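 Recombinant p38 MAPKα was preincubated with compound for 2 h at RT. Its activity was measured indirectly through activation/phosphorylation of downstream MAPKAP-K2, with a Z-LYTE FRET peptide read-out (coumarin/fluorescein ratio) after a 1 h development step. IC50 came from concentration-response curves of percent inhibition versus an uninhibited control.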

Balb/c mice = test: LPS-induced neutrophil accumulation in mice; format: in vivo; settings: for % inhibition of Influx / Neutrophil numbers in BAL 8 h pre-dose: 0.2 mg/mL, 8 h pre-dose; for inhibitory effects versus neutrophil influx into the BALF: dosed 8 hr before the inflammatory stimulus
Method: LPS-Induced Neutrophil Accumulation in Mice
Non-fasted Balb/c mice were dosed by the intra tracheal route with either vehicle, or the test substance at the indicated times (within the range 2-8 hr) before stimulation of the inflammatory response by application of an LPS challenge. At T=0, mice were placed into an exposure chamber and exposed to LPS. After a further 8 hr the animals were anesthetized, their tracheas cannulated and BALF extracted by infusing and then withdrawing from their lungs 1.0 mL of PBS via the tracheal catheter. Total and differential white cell counts in the BALF samples were measured using a Neubaur haemocytometer. Cytospin smears of the BALF samples were prepared by centrifugation at 200 rpm for 5 min at RT and stained using a DiffQuik stain system (Dade Behring). Cells were counted using oil immersion microscopy.

[2] = tested on: IL-8 release in d-U937 cells; test: LPS-induced IL-8 release in d-U937 cells; format: cell-based, human; settings: Homo sapiens, dU937
Outline: (§1)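 PMA-differentiated (100 ng/ml, 48–72 hr) U937 macrophage-type cells pre-incubated 2 hr with compound, then stimulated 4 hr with 0.1 μg/mL E. coli O111:B4 LPS; supernatant TNFα and IL-8 measured by sandwich ELISA. TNFα inhibition expressed relative to 10 μg/mL BIRB796, giving REC50; IL-8 inhibition versus vehicle, giving IC50.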

[3] = tested on: ICAM-1 induction in BEAS2B cells; test: Poly I:C-induced ICAM-1 induction in BEAS2B cells; format: cell-based, human; settings: Homo sapiens, BEAS-2B, read-out: PolyIC/ICAM1 IC50 BEAS2B
Outline: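 Human bronchial epithelial BEAS2B cells were pre-incubated with compound for 2 hr, then transfected with 1 μg/mL poly I:C. After 18 hr, surface ICAM-1 was measured by cell-based ELISA (OD450-655) and normalized to crystal violet cell counts (OD595). IC50 came from inhibition versus vehicle across the concentration-response curve.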

[4] = tested on: TNFα release in d-U937 cells; test: LPS-induced TNFα release in d-U937 cells; format: cell-based, human; settings: Homo sapiens, dU937, relative to 10 μg/mL BIRB796, read-out: LPS/TNFα REC50 d-U937
Outline: as §1

[5] = tested on: Differentiated U937 cells; test: Cell viability MTT assay; format: cell-based, human; settings: negative = apparent increase in viability; for MTT Assay (Viability) 4 h d-U937, percentage loss of cell viability: 4 hr in 5% FCS; for MTT Assay (Viability) 24 h d-U937, percentage loss of cell viability: 24 h in 10% FCS
Outline: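 Differentiated U937 cells pre-incubated with compound either 4 hr in 5% FCS or 24 h in 10% FCS, then 1 hr MTT. Formazan dissolved in DMSO, absorbance at 550 nm. Percentage viability loss relative to 0.5% DMSO vehicle; apparent increases appear as negative percentages.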

p38 MAPKγ (MAPK12) = target: T2, p38 MAPKγ (MAPK12) (Homo sapiens, UniProt P53778); test: Enzyme inhibition assay (FRET, Z-LYTE), p38 MAPKγ; format: biochemical; settings: read-out: Enzyme Inhibition IC50 p38γ
T2 construct: purchased Invitrogen
T2 sequence (P53778 1-367): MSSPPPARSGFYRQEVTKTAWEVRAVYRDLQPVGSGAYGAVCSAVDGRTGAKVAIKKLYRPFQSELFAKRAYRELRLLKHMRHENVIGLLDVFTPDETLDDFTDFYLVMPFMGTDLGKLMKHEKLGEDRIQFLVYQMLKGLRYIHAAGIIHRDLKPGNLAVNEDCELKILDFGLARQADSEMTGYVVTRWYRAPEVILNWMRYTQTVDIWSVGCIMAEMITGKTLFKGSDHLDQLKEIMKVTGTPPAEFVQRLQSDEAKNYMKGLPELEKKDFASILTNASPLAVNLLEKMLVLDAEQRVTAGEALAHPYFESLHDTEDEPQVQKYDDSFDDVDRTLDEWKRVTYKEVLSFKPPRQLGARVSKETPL
Outline: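 Recombinant phosphorylated p38 MAPKγ preincubated 2 h at RT with compound in HEPES buffer, then 2 μM FRET peptide and 100 μM ATP added for 1 h; protease development 1 h. Coumarin/fluorescein emission ratio gave phosphorylation; IC50 from concentration-response versus uninhibited control.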

[6] = tested on: TNFα release in THP-1 cells; test: LPS-induced TNFα release in THP-1 cells; format: cell-based, human; settings: Homo sapiens
Outline: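 Human monocytic THP-1 cells stimulated with 3 μg/mL E. coli LPS for 4 hr; supernatant TNFα measured by sandwich ELISA. Inhibition at each concentration versus vehicle control, IC50 from concentration-response curve.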

A/J mice = test: Cigarette smoke model; format: in vivo; settings: 1.75 μg/mouse (35 μL, bid, i.n.), cigarette smoke model
Method: A/J mice (males, 5 weeks old) were exposed to cigarette smoke (4% cigarette smoke, diluted with air) for 30 min/day for 11 days using a Tobacco Smoke Inhalation Experiment System for small animals (Model SIS-CS; Sibata Scientific Technology, Tokyo, Japan). Test substances were administered intra-nasally (35 μL of solution in 50% DMSO/PBS) twice daily for 3 days after the final cigarette smoke exposure. At 12 hr after the last dosing, each of the animals was anesthetized, the trachea cannulated and bronchoalveolar lavage fluid (BALF) was collected. The numbers of alveolar macrophages and neutrophils were determined by FACS analysis (EPICS® ALTRA II, Beckman Coulter, Inc., Fullerton, Calif., USA) using anti-mouse MOMA2 antibody (macrophage) or anti-mouse 7/4 antibody (neutrophil).
The data for cell numbers are shown as the mean±SEM.

T1 sequence (Q16539 whole entry, canonical isoform): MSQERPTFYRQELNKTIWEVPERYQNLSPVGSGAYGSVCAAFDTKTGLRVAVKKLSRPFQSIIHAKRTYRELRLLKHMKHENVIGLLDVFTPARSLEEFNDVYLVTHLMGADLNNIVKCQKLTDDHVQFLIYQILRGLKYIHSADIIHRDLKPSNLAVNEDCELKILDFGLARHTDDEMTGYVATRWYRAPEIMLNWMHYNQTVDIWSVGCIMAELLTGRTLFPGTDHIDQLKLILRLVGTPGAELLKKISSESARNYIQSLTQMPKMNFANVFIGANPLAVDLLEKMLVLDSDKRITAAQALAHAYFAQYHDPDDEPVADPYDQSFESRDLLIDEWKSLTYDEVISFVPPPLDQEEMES

| SMILES | IC50 [1] [nM] | % inhibition of Influx (Balb/c mice; Table 6) [%] | Neutrophil numbers in BAL 8 h pre-dose (Balb/c mice; Table 6) | inhibitory effects versus neutrophil influx into the BALF (Balb/c mice) | IC50 [2] [nM] | IC50 [3] [nM] | EC50 [4] [nM] | MTT Assay (Viability) 4 h d-U937, percentage loss of cell viability [5] [%] | MTT Assay (Viability) 24 h d-U937, percentage loss of cell viability [5] [%] | IC50 (p38 MAPKγ (MAPK12)) [nM] | IC50 [6] [nM] | inhibition of LPS-induced neutrophil accumulation (Balb/c mice; 1.75 μg/mouse) [%] | neutrophil or macrophage accumulation into airways (A/J mice) | % inhibition of Influx (Balb/c mice; Table 5) [%] | Neutrophil numbers in BAL 8 h pre-dose (Balb/c mice; Table 5) |
| --- | --- | --- | --- | --- | --- | --- | --- | --- | --- | --- | --- | --- | --- | --- | --- |
| CC(C)(C)c1cc(NC(=O)Nc2ccc(Oc3ccnc(NC(=O)N4CCCC4)c3)c(Cl)c2Cl)n(-c2ccc(O)cc2)n1 [Example 75, N-(4-(4-(3-(3-tert-butyl-1-(4-hydroxyphenyl)-1H-pyrazol-5-yl)ureido)-2,3-dichlorophenoxy)pyridin-2-yl)pyrrolidine-1-carboxamide] | 147 | 23 | 10.87 ± 2.13 × 10^5/mL | inhibitory effects; also recorded: particularly marked | 1.7 | 0.3 | 1.3 | −33.7 | 6.6 | 181 | 0.4 |  |  |  |  |
| CCC(=O)O[C@]1(C(=O)SCF)[C@H](C)C[C@H]2[C@@H]3C[C@H](F)C4=CC(=O)C=C[C@]4(C)[C@@]3(F)[C@@H](O)C[C@@]21C [fluticasone propionate, reference compound] |  |  |  |  |  |  |  |  |  |  |  | > 80 | did not inhibit |  |  |
| Cc1ccc(-n2nc(C(C)(C)C)cc2NC(=O)Nc2ccc(Oc3cc(NC(=O)NCCN(C)C)ncn3)c(Cl)c2Cl)cc1 [Example 24, 1-(3-tert-Butyl-1-p-tolyl-1H-pyrazol-5-yl)-3-(2,3-dichloro-4-(6-(3-(2-(dimethylamino)ethyl)ureido)pyrimidin-4-yloxy)phenyl)urea] | 5.7 |  |  | inhibitory effects | 1.1 | 10.5 | 1.7 | −17.7 | 39.5 | 46.3 | 1.7 |  |  | 9 | 15.71 ± 2.48 × 10^5/mL |
| COCC(=O)Nc1cc(Oc2ccc(NC(=O)Nc3cc(C(C)(C)C)nn3-c3ccc(OC)cc3)c(Cl)c2Cl)ncn1 [Example 91, N-(6-(4-(3-(3-tert-butyl-1-(4-methoxyphenyl)-1H-pyrazol-5-yl)ureido)-2,3-dichlorophenoxy)pyrimidin-4-yl)-2-methoxyacetamide] | 58.3 |  |  | inhibitory effects; also recorded: particularly marked | 5.9 | 2.9 | 1.2 | −47.2 | 6.9 | 162 | 1.6 |  |  | 33 | 11.67 ± 2.07 × 10^5/mL |
| CN(C)[C@H]1CCN(C(=O)Nc2cc(Oc3ccc(NC(=O)Nc4cc(C(C)(C)C)nn4-c4ccc(O)cc4)c(Cl)c3Cl)ccn2)C1 [Example 80, (S)-N-(4-(4-(3-(3-tert-butyl-1-(4-hydroxyphenyl)-1H-pyrazol-5-yl)ureido)-2,3-dichlorophenoxy)pyridin-2-yl)-3-(dimethylamino) pyrrolidine-1-carboxamide] | 12.3 |  |  | inhibitory effects | 3.6 | 2.3 | 0.8 | −3.0 | 15.7 | 59.3 | 0.6 |  |  | 12 | 15.22 ± 2.34 × 10^5/mL |
| COCC(=O)Nc1cc(CSc2ccc(NC(=O)Nc3cc(C(C)(C)C)nn3-c3ccc(OC)cc3)c(Cl)c2Cl)ccn1 [Example 26, N-(4-((4-(3-(3-tert-Butyl-1-(4-methoxyphenyl)-1H-pyrazol-5-yl)ureido)-2,3-dichlorophenylthio)methyl)pyridin-2-yl)-2-methoxyacetamide] | 29 |  |  |  | 266 | > 156 | 171 | 10.5 | −4.3 | 2860 | 97.2 |  |  |  |  |
| CNC(=O)Nc1cc(Oc2ccc(NC(=O)Nc3cc(C(C)(C)C)nn3-c3ccc(C(=O)OC)cc3)c(Cl)c2Cl)ccn1 [Example 59, methyl 4-(3-tert-butyl-5-(3-(2,3-dichloro-4-(2-(3-methylureido)pyridin-4-yloxy)phenyl)ureido)-1H-pyrazol-1-yl)benzoate] | 125 |  |  |  | 1.9 | 0.9 | 1.6 | −24.8 | 0.0 | 198 | 2 |  |  |  |  |
| COc1ccc(-n2nc(C(C)(C)C)cc2NC(=O)Nc2ccc(Oc3ccnc(NC(=O)N4CCCC4)c3)c(C#N)c2Cl)cc1 [Example 79, N-(4-(4-(3-(3-tert-butyl-1-(4-methoxyphenyl)-1H-pyrazol-5-yl)ureido)-3-chloro-2-cyanophenoxy)pyridin-2-yl)pyrrolidine-1-carboxamide] | 32.3 |  |  |  | 6.6 | 1.3 | 0.4 | −13.9 | 23.2 | 36.6 | 0.5 |  |  |  |  |
